Test results as given in patent US9072676B2, “Cyclohexyl carbamate compounds as skin and/or hair lightening actives” (SYMRISE AG, priority 2010, dated 2015).

Tested on: B16V mouse melanoma cells
Assay: Depigmenting effect on melanoma cell cultures (inhibition of pigmentation)
Assay type: cell-based
Settings: 96 h, read-out: IC50 (concentration at which pigmentation is inhibited by 50%)
Experimental: B16V mouse melanoma cells are disseminated in a 96-well microtitre plate in a concentration of 5×10^3 cells/well. After cultivation for 24 h at 37° C. and 5% CO2 in RPMI medium, enriched with 10% foetal calf serum, various concentrations of the test substances and 0.3 mM tyrosine and 10 nM α-MSH (α-melanocyte stimulating hormone) are added and incubated for a further 96 h. The maximum concentration of the test substances used corresponds to 0.1 times the value of the IC20 value of the cytotoxicity assay. Standards are incubated with kojic acid in concentrations of 0.01 mM, 0.1 mM and 1 mM in addition to tyrosine and α-MSH. Only tyrosine and α-MSH are added to the controls. After incubation, sodium lauryl sulfate and sodium hydroxide solution (final concentrations: 1 mM and 1 M respectively) are added to the culture medium and the absorption (A) is measured after 3 h at 400 nm.
The inhibition of pigmentation in the presence of the test compounds or kojic acid was calculated using the following equation: Inhibition of pigmentation (%)=100−[(Atest compound/Acontrol)×100] wherein
Atest compound=absorption of the wells with test substance and with cells
Acontrol=absorption of the wells without test substance, but with cells
From the inhibition of pigmentation (%) in a series of dilutions of test compounds, the IC50 for each test compound is calculated. This is the concentration of a test compound at which pigmentation is inhibited by 50%.

| SMILES | IC50 |
| --- | --- |
| CCNC(=O)OC1CC(C)CC(C)(C)C1 (centres unmarked) [BIO1572, Ethyl-carbamic acid 3,3,5-trimethyl-cyclohexyl ester] | 63.1 µM |
| CCNC(=O)OC1CC2CCC1(C)C2(C)C (centres unmarked) [BIO1573, Ethyl-carbamic acid 1,7,7-trimethyl-bicyclo[2.2.1]hept-2-yl ester] | 74.9 µM |
| COCCCNC(=O)OC1CC(C)CC(C)(C)C1 (centres unmarked) [BIO1574, (3-Methoxy-propyl)-carbamic acid 3,3,5-trimethyl-cyclohexyl ester] | 9.5 µM |

Same assay, conditions: B16V cells, 0.3 mM tyrosine and 10 nM α-MSH, 96 h incubation, absorption at 400 nm, read-out: IC50 (concentration at which pigmentation is inhibited by 50%)

| SMILES | IC50 |
| --- | --- |
| C=C(C)C1CCC(C)CC1OC(=O)NCC (centres unmarked) [BIO1551, Ethyl-carbamic acid 2-isopropenyl-5-methyl-cyclohexyl ester] | 40.9 µM |
| CCNC(=O)OC1CC(C)CC(C)C1 (centres unmarked) [BIO1561, Ethyl-carbamic acid 3,5-dimethyl-cyclohexyl ester] | 32.7 µM |
| C=C(C)C1CCC(C)CC1OC(=O)NCCCC (centres unmarked) [BIO1615, Butyl-carbamic acid 2-isopropenyl-5-methyl-cyclohexyl ester] | 43 µM |
| CCCCNC(=O)OC1CC(C)CC(C)(C)C1 (centres unmarked) [BIO1616, n-Butyl-carbamic acid 3,3,5-trimethyl-cyclohexyl ester] | 10.9 µM |
| CCCCNC(=O)OC1C(C)CCC(C)C1C (centres unmarked) [BIO1617, n-Butyl-carbamic acid 2,3,6-trimethyl-cyclohexyl ester] | 15.4 µM |
| CC1CC(OC(=O)Nc2ccccc2O)CC(C)(C)C1 (centres unmarked) [BIO1642, (2-Hydroxy-phenyl)-carbamic acid 3,3,5-trimethyl-cyclohexyl ester] | 5.6 µM |
| CC1CCCC(OC(=O)Nc2ccccc2O)C1C (centres unmarked) [BIO1643, (2-Hydroxy-phenyl)-carbamic acid 2,3-dimethyl-cyclohexyl ester] | 0.7 µM |
| CC(C)C1CCCCC1OC(=O)Nc1ccccc1O (centres unmarked) [BIO1646, (2-Hydroxy-phenyl)-carbamic acid 2-isopropyl-cyclohexyl ester] | 4.7 µM |
| CC1CC(C)CC(OC(=O)Nc2ccccc2)C1 (centres unmarked) [BIO1685, Phenyl-carbamic acid 3,5-dimethyl-cyclohexyl ester] | 18.9 µM |
| CC1CCCCC1NC(=O)OC1CCC(C(C)(C)C)CC1 (centres unmarked) [BIO1690, (2-Methyl-cyclohexyl)-carbamic acid 4-tert-butyl-cyclohexyl ester] | 10.9 µM |
| CCN(CC)C(=O)OC1C(C)CCC(C)C1C (centres unmarked) [BIO1692, Diethyl-carbamic acid 2,3,6-trimethyl-cyclohexyl ester] | 41.7 µM |
| CCN(CC)C(=O)OC1CCCCC1C(C)C (centres unmarked) [BIO1694, Diethyl-carbamic acid 2-isopropyl-cyclohexyl ester] | 38.5 µM |
| COc1ccccc1NC(=O)OC1C(C)CCC(C)C1C (centres unmarked) [BIO1701, (2-Methoxy-phenyl)-carbamic acid 2,3,6-trimethyl-cyclohexyl ester] | 10.2 µM |
| COc1ccccc1NC(=O)OC1CC(C)CC(C)(C)C1 (centres unmarked) [BIO1703, (2-Methoxy-phenyl)-carbamic acid 3,3,5-trimethyl-cyclohexyl ester] | 25.1 µM |
| CCCC1CCC(OC(=O)NCCCC(OCC)OCC)CC1 (centres unmarked) [BIO1707, (4,4-Diethoxy-butyl)-carbamic acid 4-propyl-cyclohexyl ester] | 12.7 µM |
| CC(C)(C)C1CCCCC1OC(=O)Nc1ccccc1 (centres unmarked) [BIO1740, Phenyl-carbamic acid 2-tert-butyl-cyclohexyl ester] | 5.5 µM |
| O=C(Nc1ccccc1)OC1CCCCC1 [BIO1741, Phenyl-carbamic acid cyclohexyl ester] | 12.9 µM |
| COc1ccccc1NC(=O)OC1CCCCC1C(C)C (centres unmarked) [BIO1744, (2-Methoxy-phenyl)-carbamic acid 2-isopropyl-cyclohexyl ester] | 18.3 µM |

Next, values leading:

| IC50 | SMILES |
| --- | --- |
| 52.5 µM | Cc1ccc(NC(=O)OC2CC(C)CC(C)C2)cc1 (centres unmarked) [BIO1822, p-Tolyl-carbamic acid 3,5-dimethyl-cyclohexyl ester] |
| 4.7 µM | Cc1ccc(NC(=O)OC2CCCCC2C(C)C)cc1 (centres unmarked) [BIO1824, p-Tolyl-carbamic acid 2-isopropyl-cyclohexyl ester] |
| 72.5 µM | Cc1ccc(NC(=O)OC2CCCC(C)C2)cc1 (centres unmarked) [BIO1825, p-Tolyl-carbamic acid 3-methyl-cyclohexyl ester] |
| 89.5 µM | CCCCNC(=O)OC1CC(C)CC(C)C1 (centres unmarked) [BIO1840, n-Butyl-carbamic acid 3,5-dimethyl-cyclohexyl ester] |
| 28.5 µM | CCCCNC(=O)OC1CCCCC1C(C)C (centres unmarked) [BIO1841, Butyl-carbamic acid 2-isopropyl-cyclohexyl ester] |
| 94.1 µM | CCCCNC(=O)OC1CCCC(C)C1C (centres unmarked) [BIO1842, Butyl-carbamic acid 2,3-dimethyl-cyclohexyl ester] |
| 219 µM | CCC(C)NC(=O)OC1CC(C)CC(C)(C)C1 (centres unmarked) [BIO1844, sec-Butyl-carbamic acid 3,3,5-trimethyl-cyclohexyl ester] |
| 14.3 µM | CCCCCCNC(=O)OC1CC(C)CC(C)(C)C1 (centres unmarked) [BIO1850, n-Hexyl-carbamic acid 3,3,5-trimethyl-cyclohexyl ester] |
| 67 µM | OC[C@H]1O[C@@H](Oc2ccc(O)cc2)[C@H](O)[C@@H](O)[C@@H]1O [beta-Arbutin, reference compound] |

Tested on: Pigmented pig skin
Assay: Depigmenting effect on ex vivo skin (melanin granules, Fontana-Masson stain, image analysis)
Assay type: tissue-based
Settings: 0.5 wt.% in O/W emulsion, applied topically, 6 days
Experimental: Pigmented pig skin was excised from animals (slaughtered for meat production; the pig skin model included the subcutis fat layer as described in EP 1 939 27), cut into 4×4×3 mm pieces (length×width×height) and placed in culture at the air-liquid interface on a sterilized cotton pad soaked with 5 ml of customized DMEM (Dulbecco's Modified Eagle Medium). Assays were started 24 h after sample acclimatization at 37° C., 5% CO2. O/W emulsions (as described in more detail below) without (=control) and with the test compounds, respectively, were applied topically and incubated for 6 days. Histological sections were prepared and melanin granules stained by Fontana-Masson technique. The granules were quantified by image analysis.
The O/W emulsions used had the following composition:
Phases A and B are heated to 70° C. separately. Pemulen TR1 as well as Ultrez-21 are dispersed in phase B when heated to 70° C. Phase B/C is added to phase A by mixing with an Ultra Turrax, followed by emulsifying. Phase D is slowly added to phase A/B/C using a paddle mixer and a pH 5.5-6 is adjusted. The formulation is cooled down while mixing with a paddle mixer. Phase E is prepared by dissolving one or more compounds of formula (I) in Hydrolite-5. Subsequently, phase E is added to the mixture of phase A-D.

| SMILES | Melanin score vs. Control |
| --- | --- |
| CC1CCCC(OC(=O)Nc2ccccc2O)C1C (centres unmarked) [BIO1643, (2-Hydroxy-phenyl)-carbamic acid 2,3-dimethyl-cyclohexyl ester] | −26% |
| COc1ccccc1NC(=O)OC1CC(C)CC(C)(C)C1 (centres unmarked) [BIO1703, (2-Methoxy-phenyl)-carbamic acid 3,3,5-trimethyl-cyclohexyl ester] | −37% |

Same assay, conditions: 1 wt.% in O/W emulsion, applied topically, 6 days

| SMILES | Melanin score vs. Control |
| --- | --- |
| CCNC(=O)OC1CC(C)CC(C)C1 (centres unmarked) [BIO1561, Ethyl-carbamic acid 3,5-dimethyl-cyclohexyl ester] | −26% |
| O=C(Nc1ccccc1)OC1CCCCC1 [BIO1741, Phenyl-carbamic acid cyclohexyl ester] | −28% |
| Cc1ccc(NC(=O)OC2CCCCC2C(C)C)cc1 (centres unmarked) [BIO1824, p-Tolyl-carbamic acid 2-isopropyl-cyclohexyl ester] | −44% |
